Here are results for 17 compounds from ChEMBL document CHEMBL3351995, “β-Nitro substituted carboxylic acids and their cytotoxicity” (Bioorg Med Chem Lett, 2014).

Active and inactive are the calls of the source. The rule behind the calls is not given here. Where only a bound is given, the exact number is not on record here.

The nature of test [1]: Cytotoxicity against human SW1736 cells by SRB assay. Format: functional, cell-based. Particulars: SW-1736.
Test [2] relates to MCF7. Nature of the test: Cytotoxicity against human MCF7 cells by SRB assay. Format: functional, cell-based.
A short description of test [3]: Cytotoxicity against mouse NIH/3T3 cells by SRB assay. Format: cell-based. Particulars: NIH3T3.
Test [4] is described as follows: Cytotoxicity against human Lipo cells by SRB assay. Format: functional, cell-based.
The nature of test [5]: Cytotoxicity against human DLD1 cells by SRB assay. Format: functional, cell-based. Particulars: DLD-1.
The test system of test [6] is A549. Nature of the test: Cytotoxicity against human A549 cells by SRB assay. Format: functional, cell-based.
Test [7] deals with 8505C. Put plainly: Cytotoxicity against human 8505C cells by SRB assay. Format: functional, cell-based.
The nature of test [8]: Cytotoxicity against human 518A2 cells by SRB assay. Format: functional, cell-based.
Test [9] is described as follows: Cytotoxicity against human A253 cells by SRB assay. Format: functional, cell-based.
Test [10] relates to A2780. Nature of the test: Cytotoxicity against human A2780 cells by SRB assay. Format: functional, cell-based.
In test [11] the test system is 518A2. Put plainly: Induction of apoptosis in human 518A2 cells assessed as secondary necrotic cells at 35 uM after 24 hrs by fluorescence microscopy. Format: functional, cell-based.
For test [12], the system named is 518A2. Put plainly: Induction of apoptosis in human 518A2 cells assessed as secondary necrotic cells at 35 uM after 48 or 72 hrs by annexin V-FITC/propidium iodide staining-based flow cytometry. Format: functional.
The test system of test [13] is 518A2. Nature of the test: Induction of apoptosis in human 518A2 cells assessed as necrotic cells at 35 uM after 48 or 72 hrs by annexin V-FITC/propidium iodide staining-based flow cytometry. Format: functional.
Test [14] deals with 518A2. Put plainly: Induction of apoptosis in human 518A2 cells assessed as apoptotic ells at 35 uM after 48 or 72 hrs by annexin V-FITC/propidium iodide staining-based flow cytometry. Format: functional.
Test [15] has as its system 518A2. Nature of the test: Induction of apoptosis in human 518A2 cells assessed as normal cells at 35 uM after 48 or 72 hrs by annexin V-FITC/propidium iodide staining-based flow cytometry. Format: functional.

Regarding `CCOC(=O)C(C[N+](=O)[O-])c1ccc(OC)cc1` (stereo not given), the IC50 in [1], in [2], in test [3], in test [4], in test [5] and in test [6] was over 30 µM throughout. Further, the IC50 in [7], in [8], in test [9] and in test [10] was over 30 µM throughout.
For `CCOC(=O)C(C[N+](=O)[O-])c1ccc(F)cc1` (stereo not given), the IC50 in test [1], in [2], in test [3], in [4], in [5] and in [6] was over 30 µM each time. Besides, the IC50 in test [7], in test [8], in [9] and in [10] was over 30 µM each time.
On to `COC(=O)C(C[N+](=O)[O-])c1ccc(Cl)cc1` (stereo not given), for which the IC50 in [1] is 5.8 µM; in test [2], 3.4 µM; in test [3], 2.1 µM; in test [4] it was 8.7 µM; in test [5], 5.2 µM; in test [6], 10.5 µM. Besides, the IC50 in test [7] was 11.6 µM; in [8] it was 5.8 µM; in test [9], 5.4 µM; in test [10], 2.5 µM.
As to `CCOC(=O)C(C[N+](=O)[O-])c1cccc(OC(F)(F)F)c1` (stereo not given), the half-maximal inhibitory concentration (IC50) was 16.6 µM in test [1]; over 30 µM in [2]; over 30 µM in test [3]; over 30 µM in test [4]; over 30 µM in test [5]; 19.9 µM in test [6]. Further, the IC50 in [7] is 22.1 µM; in test [8], 14.5 µM; in test [9] it was 11.8 µM; in test [10], 2.2 µM.
In the case of `CN(C)C(=O)C(C[N+](=O)[O-])c1ccc(Cl)cc1` (stereo not given), the IC50 in test [1], in test [2], in [3], in [4], in [5] and in test [6] was over 30 µM throughout. Besides, the IC50 in [7], in test [8], in test [9] and in [10] was over 30 µM in each case.
Take `CCOC(=O)C(C[N+](=O)[O-])c1ccc(C)cc1` (stereo not given): the IC50 in test [1], in [2], in [3], in [4], in test [5] and in [6] was over 30 µM throughout. Moreover, the IC50 in [7], in test [8], in test [9] and in test [10] was over 30 µM in each case.
In the case of `CCOC(=O)C(C[N+](=O)[O-])c1ccc(Cl)cc1` (stereo not given), the IC50 was over 30 µM in test [1]; 22.8 µM in [2]; 7.7 µM in test [3]; 19.2 µM in test [4]; 10.9 µM in test [5]; 14.9 µM in test [6]. The half-inhibitory concentration (IC50) in test [7] is over 30 µM; in test [8] it was 17.3 µM; in test [9], over 30 µM; in test [10], 1.6 µM. Moreover, the result in test [11] was Active. Moreover, the Activity was determined as 12.222% in test [12], 2.883% in [13], 3.224% in [14] and 22.72% in [15].
For `C=C(C#N)c1ccc(Cl)cc1`, the IC50 in [1] was over 30 µM; in [2], 14.2 µM; in test [3], 23.5 µM; in [4], over 30 µM; in test [5], over 30 µM; in test [6], over 30 µM. Further, the 50% inhibitory concentration (IC50) in [7] is over 30 µM; in test [8] it was over 30 µM; in [9] it was over 30 µM; in test [10], 15.4 µM.
As to `CCOC(=O)C(C[N+](=O)[O-])c1ccc(C(F)(F)F)cc1` (stereo not given), the IC50 in test [1] is 6.3 µM; in test [2] it was 6.7 µM; in test [3], 9.7 µM; in test [4], 15.2 µM; in test [5], 11 µM; in [6], 9.9 µM. Further, the IC50 was 13.8 µM in test [7], 15.2 µM in [8], 9.8 µM in test [9] and 6.6 µM in [10].
On to `CCOC(=O)C(C[N+](=O)[O-])c1cccc(Cl)c1` (stereo not given), for which the IC50 in [1] was 8.3 µM; in test [2], 17.9 µM; in test [3], 21.1 µM; in test [4] it was 19.5 µM; in [5] it was 14.5 µM; in test [6], 3.5 µM. Besides, the half-maximal inhibitory concentration (IC50) in test [7] was determined as 14.9 µM; in test [8], 7.3 µM; in [9] it was 10.6 µM; in [10] it was 14.4 µM.
With `CCOC(=O)C(C)(C[N+](=O)[O-])c1ccc(Cl)cc1` (stereo not given), the IC50 in [1], in test [2], in test [3], in [4], in [5] and in test [6] was over 30 µM throughout. Further, the IC50 in test [7], in [8], in test [9] and in test [10] was over 30 µM in each case.
As for `NC(=O)C(C[N+](=O)[O-])c1ccc(Cl)cc1` (stereo not given), the concentration for half-maximal inhibition (IC50) in test [1], in [2], in test [3], in test [4], in test [5] and in test [6] was over 30 µM in each case. Besides, the IC50 in test [7], in [8], in test [9] and in test [10] was over 30 µM each time.
For the compound `CCOC(=O)C(CN)c1ccc(Cl)cc1` (stereo not given), the IC50 in test [1] was over 30 µM; in test [2], over 30 µM; in test [3] it was 25.7 µM; in [4] it was over 30 µM; in [5] it was over 30 µM; in test [6], over 30 µM. The IC50 was over 30 µM in test [7], over 30 µM in [8], over 30 µM in test [9] and 22.3 µM in test [10].
Regarding `CCOC(=O)C(C[N+](=O)[O-])c1ccccc1` (stereo not given), the IC50 in test [1], in test [2], in [3], in test [4], in [5] and in [6] was over 30 µM throughout. In addition, the IC50 in test [7], in test [8], in test [9] and in test [10] was over 30 µM each time.
For `O=C(Cc1ccccc1)C(C[N+](=O)[O-])c1ccc(Cl)cc1` (stereo not given), the IC50 is 23.9 µM in test [1]; 18.2 µM in test [2]; 9.2 µM in test [3]; 28.9 µM in test [4]; 22.5 µM in test [5]; over 30 µM in [6]. For the same compound, the IC50 in test [7] is over 30 µM; in test [8], 23.9 µM; in test [9] it was 21.4 µM; in test [10], 12.1 µM.
For `CCOC(=O)C(C[N+](=O)[O-])c1ccccc1Cl` (stereo not given), the IC50 in test [1], in test [2], in [3], in [4], in test [5] and in test [6] was over 30 µM throughout. In addition, the IC50 in [7] was over 30 µM; in test [8] it was over 30 µM; in test [9], over 30 µM; in [10], 9.9 µM.
Turning to `CCOC(=O)C(C[N+](=O)[O-])c1cccc(C(F)(F)F)c1` (stereo not given), the IC50 was found to be 4.7 µM in test [1]; 7.6 µM in test [2]; 10.2 µM in test [3]; 10.9 µM in test [4]; 8.2 µM in test [5]; 13.6 µM in [6]. The IC50 is 20.7 µM in [7], 8.6 µM in [8], 7.2 µM in [9] and 6.3 µM in test [10].
